Values after ≈ are worked out from the molar mass of the structure shown. Active and inactive are the calls of the source. The calls are words filed in the database; no cut-off is given here.
Columns and labels:
Type in all cases: functional
Pichia kudriavzevii [1] = assay: Antifungal activity against Candida krusei ATCC 6258 bloodstream forms assessed as time to achieve 90% fungal growth reduction at 8 mg/L by time-kill analysis
Pichia kudriavzevii [2] = assay: Antifungal activity against Candida krusei ATCC 6258 bloodstream forms assessed as time to achieve 99.9% fungal growth reduction at 0.12 mg/L by time-kill analysis
Pichia kudriavzevii [3] = assay: Antifungal activity against Candida krusei ATCC 6258 bloodstream forms assessed as time to achieve 50% fungal growth reduction at 32 mg/L by time-kill analysis
Pichia kudriavzevii [4] = assay: Antifungal activity against Candida krusei ATCC 6258 bloodstream forms assessed as time to achieve 99% fungal growth reduction at 2 mg/L by time-kill analysis
Pichia kudriavzevii [5] = assay: Antifungal activity against Candida krusei ATCC 6258 bloodstream forms assessed as time to achieve 99.9% fungal growth reduction at 0.5 mg/L by time-kill analysis
Pichia kudriavzevii [6] = assay: Antifungal activity against Candida krusei ATCC 6258 bloodstream forms assessed as time to achieve 90% fungal growth reduction at 2 mg/L by time-kill analysis
Pichia kudriavzevii [7] = assay: Fungicidal activity against Candida krusei CY118 bloodstream forms after 24 hrs by time-kill analysis; settings: CY118, 24 h
Pichia kudriavzevii [8] = assay: Antifungal activity against Candida krusei ATCC 6258 bloodstream forms assessed as time to achieve 99.9% fungal growth reduction at 2 mg/L by time-kill analysis
Pichia kudriavzevii [9] = assay: Antifungal activity against Candida krusei ATCC 6258 bloodstream forms assessed as time to achieve 50% fungal growth reduction at 0.12 mg/L by time-kill analysis
Pichia kudriavzevii [10] = assay: Antifungal activity against Candida krusei ATCC 6258 bloodstream forms assessed as time to achieve 99% fungal growth reduction at 0.12 mg/L by time-kill analysis
Pichia kudriavzevii [11] = assay: Antifungal activity against Candida krusei ATCC 6258 bloodstream forms assessed as time to achieve 99.9% fungal growth reduction at 32 mg/L by time-kill analysis
Pichia kudriavzevii [12] = assay: Fungicidal activity against Candida krusei CK18 bloodstream forms after 24 hrs by time-kill analysis; settings: CK18, 24 h
Pichia kudriavzevii [13] = assay: Antifungal activity against Candida krusei CK1 bloodstream forms after 24 hrs by time-kill analysis; settings: CK1, 24 h
Pichia kudriavzevii [14] = assay: Fungicidal activity against Candida krusei EU123 bloodstream forms after 24 hrs by time-kill analysis; settings: EU123, 24 h
Pichia kudriavzevii [15] = assay: Fungicidal activity against Candida krusei ATCC 6258 bloodstream forms after 24 hrs by time-kill analysis; settings: ATCC 6258, 24 h
Pichia kudriavzevii [16] = assay: Antifungal activity against Candida krusei ATCC 6258 bloodstream forms after 24 hrs by time-kill analysis; settings: ATCC 6258, 24 h
Pichia kudriavzevii [17] = assay: Antifungal activity against Candida krusei ATCC 6258 bloodstream forms assessed as time to achieve 99.9% fungal growth reduction at 8 mg/L by time-kill analysis
Pichia kudriavzevii [18] = assay: Fungicidal activity against Candida krusei CK1 bloodstream forms after 24 hrs by time-kill analysis; settings: CK1, 24 h
Pichia kudriavzevii [19] = assay: Antifungal activity against Candida krusei ATCC 6258 bloodstream forms assessed as time to achieve 90% fungal growth reduction at 0.5 mg/L by time-kill analysis
Pichia kudriavzevii [20] = assay: Antifungal activity against Candida krusei CK2 bloodstream forms after 24 hrs by time-kill analysis; settings: CK2, 24 h
Pichia kudriavzevii [21] = assay: Antifungal activity against Candida krusei ATCC 6258 bloodstream forms assessed as time to achieve 90% fungal growth reduction at 0.12 mg/L by time-kill analysis
Pichia kudriavzevii [22] = assay: Antifungal activity against Candida krusei EU123 bloodstream forms after 24 hrs by time-kill analysis; settings: EU123, 24 h
Pichia kudriavzevii [23] = assay: Fungicidal activity against Candida krusei EU220 bloodstream forms after 24 hrs by time-kill analysis; settings: EU220, 24 h
Pichia kudriavzevii [24] = assay: Antifungal activity against Candida krusei ATCC 6258 bloodstream forms assessed as time to achieve 50% fungal growth reduction at 0.5 mg/L by time-kill analysis
Pichia kudriavzevii [25] = assay: Antifungal activity against Candida krusei ATCC 6258 bloodstream forms assessed as time to achieve 50% fungal growth reduction at 8 mg/L by time-kill analysis
Pichia kudriavzevii [26] = assay: Antifungal activity against Candida krusei ATCC 6258 bloodstream forms assessed as minimum concentration producing >= 100% growth reduction after 48 hrs by M27-A3 microdilution method; settings: ATCC 6258, 48 h
Pichia kudriavzevii [27] = assay: Antifungal activity against Candida krusei CY118 bloodstream forms after 24 hrs by time-kill analysis; settings: CY118, 24 h
Pichia kudriavzevii [28] = assay: Fungicidal activity against Candida krusei ATCC 6258 bloodstream forms after 48 hrs by M27-A3 microdilution method
Pichia kudriavzevii [29] = assay: Antifungal activity against Candida krusei ATCC 6258 bloodstream forms assessed as minimum concentration producing >= 100% growth reduction after 24 hrs by M27-A3 microdilution method; settings: ATCC 6258, 24 h
Pichia kudriavzevii [30] = assay: Fungicidal activity against Candida krusei CK6 bloodstream forms after 24 hrs by time-kill analysis; settings: CK6, 24 h
Pichia kudriavzevii [31] = assay: Antifungal activity against Candida krusei ATCC 6258 bloodstream forms assessed as time to achieve 50% fungal growth reduction at 2 mg/L by time-kill analysis
Pichia kudriavzevii [32] = assay: Antifungal activity against Candida krusei CK18 bloodstream forms after 24 hrs by time-kill analysis; settings: CK18, 24 h
Pichia kudriavzevii [33] = assay: Antifungal activity against Candida krusei CK6 bloodstream forms after 24 hrs by time-kill analysis; settings: CK6, 24 h
Pichia kudriavzevii [34] = assay: Antifungal activity against Candida krusei ATCC 6258 bloodstream forms assessed as time to achieve 99% fungal growth reduction at 8 mg/L by time-kill analysis
Pichia kudriavzevii [35] = assay: Antifungal activity against Candida krusei EU220 bloodstream forms after 24 hrs by time-kill analysis; settings: EU220, 24 h
Pichia kudriavzevii [36] = assay: Antifungal activity against Candida krusei ATCC 6258 bloodstream forms assessed as time to achieve 99% fungal growth reduction at 32 mg/L by time-kill analysis
Pichia kudriavzevii [37] = assay: Fungicidal activity against Candida krusei CK2 bloodstream forms after 24 hrs by time-kill analysis; settings: CK2, 24 h
Pichia kudriavzevii [38] = assay: Antifungal activity against Candida krusei ATCC 6258 bloodstream forms assessed as time to achieve 90% fungal growth reduction at 32 mg/L by time-kill analysis
Pichia kudriavzevii [39] = assay: Antifungal activity against Candida krusei ATCC 6258 bloodstream forms assessed as minimum concentration producing >= 50% growth reduction after 24 hrs by M27-A3 microdilution method; settings: ATCC 6258, 24 h
Pichia kudriavzevii [40] = assay: Antifungal activity against Candida krusei ATCC 6258 bloodstream forms assessed as minimum concentration producing >= 50% growth reduction after 48 hrs by M27-A3 microdilution method; settings: ATCC 6258, 48 h
Pichia kudriavzevii [41] = assay: Antifungal activity against Candida krusei ATCC 6258 bloodstream forms assessed as time to achieve 99% fungal growth reduction at 0.5 mg/L by time-kill analysis

CC[C@H](C)C[C@H](C)CCCCCCCCC(=O)N[C@H]1C[C@@H](O)[C@@H](NCCN)NC(=O)[C@@H]2[C@@H](O)CCN2C(=O)[C@H]([C@H](O)CCN)NC(=O)[C@H]([C@H](O)[C@@H](O)c2ccc(O)cc2)NC(=O)[C@@H]2C[C@@H](O)CN2C(=O)[C@H]([C@@H](C)O)NC1=O [CASPOFUNGIN]
Time (Pichia kudriavzevii [1]): 9.7 h
Activity (Pichia kudriavzevii [2]): inactive
Time (Pichia kudriavzevii [3]): 2.1 h
Time (Pichia kudriavzevii [4]): 24.9 h
Time (Pichia kudriavzevii [5]): >48 h
Time (Pichia kudriavzevii [6]): 12.5 h
MFC (Pichia kudriavzevii [7]): > 64 mg/L
Time (Pichia kudriavzevii [8]): 37.4 h
Activity (Pichia kudriavzevii [9]): inactive
Activity (Pichia kudriavzevii [10]): inactive
Time (Pichia kudriavzevii [11]): 21.4 h
MFC (Pichia kudriavzevii [12]): 2 mg/L (≈ 1.83 µM)
MIC (Pichia kudriavzevii [13]): 1 mg/L (≈ 0.915 µM)
MFC (Pichia kudriavzevii [14]): 2 mg/L (≈ 1.83 µM)
MFC (Pichia kudriavzevii [15]): 2 mg/L (≈ 1.83 µM)
MIC (Pichia kudriavzevii [16]): 1 mg/L (≈ 0.915 µM)
Time (Pichia kudriavzevii [17]): 29.2 h
MFC (Pichia kudriavzevii [18]): 8 mg/L (≈ 7.32 µM)
Time (Pichia kudriavzevii [19]): 27.6 h
MIC (Pichia kudriavzevii [20]): 1 mg/L (≈ 0.915 µM)
Activity (Pichia kudriavzevii [21]): inactive
MIC (Pichia kudriavzevii [22]): 2 mg/L (≈ 1.83 µM)
MFC (Pichia kudriavzevii [23]): 2 mg/L (≈ 1.83 µM)
Time (Pichia kudriavzevii [24]): 8.3 h
Time (Pichia kudriavzevii [25]): 2.9 h
MIC (Pichia kudriavzevii [26]): 0.8 mg/L (≈ 0.732 µM)
MIC50 (Pichia kudriavzevii [26]): 1 mg/L (≈ 0.915 µM)
MIC90 (Pichia kudriavzevii [26]): 2 mg/L (≈ 1.83 µM)
MIC (Pichia kudriavzevii [27]): 4 mg/L (≈ 3.66 µM)
MFC50 (Pichia kudriavzevii [28]): 2 mg/L (≈ 1.83 µM)
MFC90 (Pichia kudriavzevii [28]): 8 mg/L (≈ 7.32 µM)
MFC (Pichia kudriavzevii [28]; Pichia kudriavzevii, ATCC 6258, 48 h): 1 mg/L (≈ 0.915 µM)
MIC50 (Pichia kudriavzevii [29]): 1 mg/L (≈ 0.915 µM)
MIC90 (Pichia kudriavzevii [29]): 2 mg/L (≈ 1.83 µM)
MFC (Pichia kudriavzevii [30]): 1 mg/L (≈ 0.915 µM)
Time (Pichia kudriavzevii [31]): 3.7 h
MIC (Pichia kudriavzevii [32]): 1 mg/L (≈ 0.915 µM)
MIC (Pichia kudriavzevii [33]): 1 mg/L (≈ 0.915 µM)
Time (Pichia kudriavzevii [34]): 19.5 h
MIC (Pichia kudriavzevii [35]): 2 mg/L (≈ 1.83 µM)
Time (Pichia kudriavzevii [36]): 14.3 h
MFC (Pichia kudriavzevii [37]): 1 mg/L (≈ 0.915 µM)
Time (Pichia kudriavzevii [38]): 7.1 h
MIC50 (Pichia kudriavzevii [39]): 1 mg/L (≈ 0.915 µM)
MIC90 (Pichia kudriavzevii [39]): 2 mg/L (≈ 1.83 µM)
MIC50 (Pichia kudriavzevii [40]): 1 mg/L (≈ 0.915 µM)
MIC90 (Pichia kudriavzevii [40]): 2 mg/L (≈ 1.83 µM)
Time (Pichia kudriavzevii [41]): >48 h

Source: ChEMBL document CHEMBL1649488, “In vitro activities of echinocandins against Candida krusei determined by three methods: MIC and minimal fungicidal concentration measurements and time-kill studies” (2009)
